This experiment deals with plasma cGMP. Kind of experiment: In vivo monkey studies, plasma cGMP ELISA. Particulars: for Net cGMP (nM) Change from Baseline 0.083 h: 0.083 h postdose; for Net cGMP (nM) Change from Baseline 0.083 h / Net cGMP (nM) Change from Baseline 0.25 h / Net cGMP (nM) Change from Baseline 0.5 h / Net cGMP (nM) Change from Baseline 1 h / Net cGMP (nM) Change from Baseline 2 h / Net cGMP (nM) Change from Baseline 4 h / Net cGMP (nM) Change from Baseline 8 h / Net cGMP (nM) Change from Baseline 12 h / Net cGMP (nM) Change from Baseline 24 h / Net cGMP (nM) Change from Baseline 36 h / Net cGMP (nM) Change from Baseline 48 h / Net cGMP (nM) Change from Baseline 72 h / Net cGMP (nM) Change from Baseline 96 h / Net cGMP (nM) Change from Baseline 120 h / Net cGMP (nM) Change from Baseline 144 h / Net cGMP (nM) Change from Baseline 168 h: monkey plasma; for Net cGMP (nM) Change from Baseline 0.25 h: 0.25 h postdose; for Net cGMP (nM) Change from Baseline 0.5 h: 0.5 h postdose; for Net cGMP (nM) Change from Baseline 1 h: 1 h postdose; for Net cGMP (nM) Change from Baseline 2 h: 2 h postdose; for Net cGMP (nM) Change from Baseline 4 h: 4 h postdose; for Net cGMP (nM) Change from Baseline 8 h: 8 h postdose; for Net cGMP (nM) Change from Baseline 12 h: 12 h postdose; for Net cGMP (nM) Change from Baseline 24 h: 24 h postdose; for Net cGMP (nM) Change from Baseline 36 h: 36 h postdose; for Net cGMP (nM) Change from Baseline 48 h: 48 h postdose; for Net cGMP (nM) Change from Baseline 72 h: 72 h postdose; for Net cGMP (nM) Change from Baseline 96 h: 96 h postdose; for Net cGMP (nM) Change from Baseline 120 h: 120 h postdose; for Net cGMP (nM) Change from Baseline 144 h: 144 h postdose; for Net cGMP (nM) Change from Baseline 168 h: 168 h postdose; for net cGMP levels (result in words): monkeys, single SC dose, plasma. Also on record: species or system male cynomolgus monkeys. As for the experimental part:
In vivo monkey studies were conducted as described in detail below. Young adult-to-adult male cynomolgus monkeys were given a single dose subcutaneously (SC). Blood was collected predose and at various pre-determined timepoints throughout the study period. Aliquot of cynomolgus monkey plasma was received for cyclic cGMP (cGMP) measurement and stored at −80° C. prior to use.
Control plasma was made for determining the recovery rate of spike-in cGMP using Enzo cGMP complete ELISA kit (Enzo Life Sciences, Inc, Farmingdale, NY, cat no. ADI-901-164). Briefly, blood from male Sprague Dawley rats (Inotiv, Indianapolis, IN), about 7 months old, was collected in a BD Vacutainer EDTA tube (Becton Dickinson, Franklin Lakes, NJ, cat no. BD-367856) with volume of approximate 4 mL through retro orbital bleeding. Plasma was prepared by spinning the tube in an Eppendorf Refrigerated Centrifuge 5810R (Brinkman Instruments, Inc, Westbury, NY) at 3500 rpm (3000×g) for 10 min at 4° C. Plasma was collected as Positive Control plasma. Cyclic GMP (cGMP standard from Enzo cGMP complete ELISA kit) was added to the positive control plasma at a final concentration of additional 40 nM. Positive Control and Spiked-in Control plasma were aliquoted and stored at −80° C.
The cGMP content was measured using the Enzo cGMP complete ELISA kit following the manufacturer's directions with modifications as described below. The cGMP standards provided in the kit were diluted 1:3 ranging from 50 nM to 0.023 nM in 1× assay buffer that was diluted in water from 2× assay buffer provided in the kit. The cGMP standards ([…]) were transferred to a 96-well polypropylene plate (Thermo Scientific, cat no. 442587).
Plasma samples were thawed from −80° C. and diluted 1:20 in 1× assay buffer in the above plate with a final volume of 150 μL. Assay buffer was added (150 μL) for both a non-specific binding control (in the absence of cGMP antibody) and a maximum binding control (in the absence of competing cGMP) in duplicate wells. Positive Control and Spiked-in Control plasma were diluted 1:20 in 1× assay buffer with a final volume of 150 μL in duplicate wells of the above plate. All diluted plasma was mixed by pipetting up and down several times.
Acetylation reagent mix was prepared by adding 1-part of acetic anhydride into 2-parts of triethylamine provided in the kit and mixing well using Vortex (Scientific Industries, Inc, Bohemia, NY). All controls, standards, and plasma samples were acetylated by adding 15 μL of acetylation reagent mix into the plate, one column at a time, and shaking for 1 min on a Titer Plate Shaker (Lab-Line Instrument, Inc., Melrose Park, IL) at room temperature. The plate was shaken for an additional 1 min following the acetylation of the last column to ensure the reaction was completed.
Acetylated controls, standard and plasma samples were transferred (100 μL) to an ELISA plate (n=1). Then 50 μL of cGMP conjugate were added to each well followed by the addition of 50 μL cGMP antibody to each well except for two non-specific binding wells, in which 50 μL of 1× assay buffer were added. The plate was then sealed and shaken for 2 h at room temperature on the plate shaker. Following this incubation, the plate was washed five times using 200 μL of 1× wash buffer diluted in water from 5× wash buffer provided in the kit. Then, 200 μL of para-Nitrophenylphosphate (pNpp) were added to each well. The plate was sealed with a new plate sealer and shaken in dark for 1 h at room temperature on the plate shaker. Finally, 50 μL of stop solution were added to each well to stop the enzyme reaction. The plate was then read at 405 nm using SpectraMax Plus (Molecular Devices, San Jose, CA).
The mean absorbance at 405 nm (O.D. 405 nm) for the non-specific binding controls was subtracted from the O.D. 405 nm of all samples. The subtracted O.D. 405 nm of all samples were then normalized with the mean subtracted O.D. 405 nm of the maximum binding controls as B/B0%. […]

Numbered stars: 1 amine (or outer) side, 2 acyl side, 3 side chain; on linkers, the order of the positions; unused ones are H or OH. Bridge positions count the residues as written; N and C are the ends. Square brackets hold non-standard residues; d marks the D form. * marks the point of attachment. PEG24 = NCCOCCOCCOCCOCCOCCOCCOCCOCCOCCOCCOCCOCCOCCOCCOCCOCCOCCOCCOCCOCCOCCOCCOCCOCCC(=O)O; C20 diacid = O=C(O)CCCCCCCCCCCCCCCCCCC(=O)*; γGlu = O=C(O)[C@H](CCC(=O)[*:2])N[*:1]; CH2 = C([*:1])[*:2]; βAla = NCCC(=O)O

“{C20 diacid-γGlu}-EKEKEKGEKPRSSCFGKRIDRIGHQSGLGCPSFRHGSPSSGAPPPS-NH2 (linker 14-30 via CH2) [Example 127]”: the “net cGMP levels (result in words)” value is “increased net cGMP levels”. Further, where the note is “dose 50 nmol/kg”, the “Net cGMP (nM) Change from Baseline 0.083 h” value was -0.87 nM, the “Net cGMP (nM) Change from Baseline 0.25 h” value stood at 4.09 nM, the “Net cGMP (nM) Change from Baseline 0.5 h” value amounted to 8.84 nM and the “Net cGMP (nM) Change from Baseline 1 h” value stood at 8.13 nM. Under “dose 50 nmol/kg”, the “Net cGMP (nM) Change from Baseline 2 h” value was 8.92 nM, the “Net cGMP (nM) Change from Baseline 4 h” value is 10.25 nM, the “Net cGMP (nM) Change from Baseline 8 h” value is recorded as 13.28 nM and the “Net cGMP (nM) Change from Baseline 12 h” value amounted to 18.76 nM. Under “dose 50 nmol/kg”, the “Net cGMP (nM) Change from Baseline 24 h” value was 20.16 nM, the “Net cGMP (nM) Change from Baseline 36 h” value was 19.43 nM, the “Net cGMP (nM) Change from Baseline 48 h” value is recorded as 18.43 nM and the “Net cGMP (nM) Change from Baseline 72 h” value is 12.9 nM. For the same substance, under “dose 50 nmol/kg”, the “Net cGMP (nM) Change from Baseline 96 h” value is listed as 11.67 nM, the “Net cGMP (nM) Change from Baseline 120 h” value was found to be 9.32 nM, the “Net cGMP (nM) Change from Baseline 144 h” value came to 9.3 nM and the “Net cGMP (nM) Change from Baseline 168 h” value turned out to be 9.36 nM.

In the case of “{C20 diacid-γGlu}-EKEKEKG[PEG24]EK[βAla]RSSCFGKRIDRIGHYSGLGCPSFRHGSPSSGAPPPS-NH2 (linker 15-31 via CH2) [Example 106]”, the “net cGMP levels (result in words)” value was “increased net cGMP levels”. For the setting “dose 100 nmol/kg”, the “Net cGMP (nM) Change from Baseline 0.083 h” value came out at 3.54 nM, the “Net cGMP (nM) Change from Baseline 0.25 h” value turned out to be 19.8 nM, the “Net cGMP (nM) Change from Baseline 0.5 h” value amounted to 25.25 nM and the “Net cGMP (nM) Change from Baseline 1 h” value came to 24.83 nM. Besides, for the setting “dose 100 nmol/kg”, the “Net cGMP (nM) Change from Baseline 2 h” value stood at 26.38 nM, the “Net cGMP (nM) Change from Baseline 4 h” value is listed as 26.16 nM, the “Net cGMP (nM) Change from Baseline 8 h” value is 14.03 nM and the “Net cGMP (nM) Change from Baseline 12 h” value came to 17.64 nM. Besides, for the setting “dose 100 nmol/kg”, the “Net cGMP (nM) Change from Baseline 24 h” value is 9.38 nM, the “Net cGMP (nM) Change from Baseline 36 h” value came to 12.13 nM, the “Net cGMP (nM) Change from Baseline 48 h” value is 8.71 nM and the “Net cGMP (nM) Change from Baseline 72 h” value came to 5.67 nM. For the same substance, for the setting “dose 100 nmol/kg”, the “Net cGMP (nM) Change from Baseline 96 h” value is recorded as 6.4 nM, the “Net cGMP (nM) Change from Baseline 120 h” value is reported as 7.88 nM, the “Net cGMP (nM) Change from Baseline 144 h” value came out at 7.54 nM and the “Net cGMP (nM) Change from Baseline 168 h” value was determined as 7.66 nM.

With “{C20 diacid-γGlu}-EKEKEKG[PEG24]EKPRSSCFGKRIDRIGHQSGLGCPSFRHSGSPSSGAPPPSG-NH2 (linker 15-31 via CH2) [Example 132, HOOC-(CH2)18-CO-(γGlu)-EKEKEKG-PEG24-EKPRSS[CFGKRIDRIGHQSGLGCJPSFRHSGSPSSGAPPPSG-NH2]”, the “net cGMP levels (result in words)” value is recorded as “increased net cGMP levels”. For the same substance, for the setting “dose 25 nmol/kg”, the “Net cGMP (nM) Change from Baseline 0.083 h” value came to 2.96 nM, the “Net cGMP (nM) Change from Baseline 0.25 h” value amounted to 11.54 nM, the “Net cGMP (nM) Change from Baseline 0.5 h” value was determined as 25 nM and the “Net cGMP (nM) Change from Baseline 1 h” value stood at 29.41 nM. Where the note is “dose 25 nmol/kg”, the “Net cGMP (nM) Change from Baseline 2 h” value is listed as 28.64 nM, the “Net cGMP (nM) Change from Baseline 4 h” value stood at 28.7 nM, the “Net cGMP (nM) Change from Baseline 8 h” value came out at 24.12 nM and the “Net cGMP (nM) Change from Baseline 12 h” value is reported as 20.96 nM. For the same substance, under “dose 25 nmol/kg”, the “Net cGMP (nM) Change from Baseline 24 h” value was determined as 19.79 nM, the “Net cGMP (nM) Change from Baseline 36 h” value is 17.54 nM, the “Net cGMP (nM) Change from Baseline 48 h” value is 12.7 nM and the “Net cGMP (nM) Change from Baseline 72 h” value turned out to be 13.11 nM. Besides, under “dose 25 nmol/kg”, the “Net cGMP (nM) Change from Baseline 96 h” value is 11.68 nM, the “Net cGMP (nM) Change from Baseline 120 h” value is given as 13.22 nM, the “Net cGMP (nM) Change from Baseline 144 h” value was determined as 11.64 nM and the “Net cGMP (nM) Change from Baseline 168 h” value was 7.08 nM.

Source of the values: US20240174727A1, “LONG-ACTING NATRIURETIC PEPTIDES AND USES THEREOF” (Eli Lilly and Company, priority 2022, published 2024).
